Measurements taken from patent publication US9283198B2, “Materials and methods for treating viral infections” (priority 2005, dated 2016).
In brackets after ≈: the same amount, converted by molar mass. Where a name gives a salt, the structure may show the parent alone. Read-outs that look alike come from different tables or passages of the source.

How the values were obtained:
[1] = test system: H5N1 avian influenza viruses CV strain; experiment: animal or person; assay type: in vivo, H5N1 avian influenza virus; conditions: for IC50: Influenza A virus
[2] = test system: H5N1 avian influenza virus, WV strain; conditions: in vivo, po
embryonated hen eggs = conditions: in vivo
influenza virus = conditions: in vivo, po
[3] = H5N1, read-out: IC50 against H5N1 avian influenza virus

| SMILES | IC50 ([1]; H5N1, read-out: IC50 (drug concentration required to survive 50% embryo)) [mg/mL] | IC50 [1, 3] [mg/mL] | protection rate in mice [2] [%] | IC50 against H5N1 avian influenza virus ([1]; in vivo) [mg/mL] | LD50 of TG21 to embryonated hen eggs (embryonated hen eggs; chicken (hen) embryo) [mg/mL] | dose below which no side-effect was found (embryonated hen eggs; chicken (hen) embryo) | toxicity at high doses (embryonated hen eggs) | time until symptoms associated with the influenza infection had disappeared (influenza virus) [h] |
| --- | --- | --- | --- | --- | --- | --- | --- | --- |
| CCOC(=O)C1=C[C@@H](OC(CC)CC)[C@H](NC(C)=O)[C@@H](N)C1 [TAMIFLU®, oseltamivir phosphate, reference compound] | 25.1 | 19.4 | 60 |  |  |  |  |  |
| NCCS [TG21, Cysteamine] |  | 17.5 (≈ 227 mM) |  | 16.1 (≈ 209 mM) | 32.1 | below 12.5 mg/mL | some toxicity was detected |  |
| NCCS [cysteamine hydrochloride] |  |  |  |  |  |  |  | ≤ 24 |
